The term Kd denotes the equilibrium constant for the complex coming apart.

Results on 3 substances are retold here after paper PMC3501490 (PLoS ONE, 2012).

Where no end group is shown, it is not given here. [ ]: non-standard residue; d: D form. pY = N[C@@H](Cc1ccc(OP(=O)(O)O)cc1)C(=O)O

For test [1], the system named is washed human platelets (thrombin). Briefly: Activation of TAT-peptide-loaded platelets, thrombin. The test is classed as cell-based. The conditions noted are these: platelets loaded with 10 µM peptide, 15 min, 30°C; data not shown. The procedure:
Whole blood was taken from healthy volunteers and collected into 50 ml syringes containing 5 ml acid citrate-dextrose (ACD) in accordance with procedures approved by the Local Research Ethics Committee (Ref: 07/Q1603/17). Platelet-rich plasma (PRP) was isolated by centrifugation at 200 g for 10 minutes at room temperature. PRP was pooled and 10 µg PGI2 was added before centrifugation at 1000 g for 10 minutes at room temperature. Platelets were resuspended in 1 ml Tyrodes buffer (134 mM NaCl, 0.34 mM Na2HPO4, 2.9 mM KCl, 12 mM NaHCO3, 20 mM HEPES, 5 mM glucose, 1 mM MgCl2, pH 7.3) pre-warmed to 30°C and 150 µl ACD. The volume was adjusted to 25 ml with Tyrodes buffer, followed by 3 ml ACD and 1.25 µg PGI2. […]
Fluorescein-labelled, TAT-G6B-b peptides were synthesised by Peptide Protein Research Ltd (Hampshire, U.K.). […] Peptides were loaded into washed platelets by incubation with 10 µM peptide for 15 minutes at 30°C, after which they were assessed by light transmission aggregometry. […]
Washed human platelets were loaded with TAT-G6B-b peptides (either dual phosphorylated or unphosphorylated) and changes in CRP efficacy determined by light transmission aggregometry. […]

In test [2] the test system is washed human platelets (collagen). Put plainly: Light transmission aggregometry of TAT-peptide-loaded platelets, collagen. It counts as cell-based. The conditions noted are these: for effect on EC50 / sensitivity to collagen: washed human platelets, TAT peptide loading. The procedure:
(§1) Whole blood was taken from healthy volunteers and collected into 50 ml syringes containing 5 ml acid citrate-dextrose (ACD) in accordance with procedures approved by the Local Research Ethics Committee (Ref: 07/Q1603/17). Platelet-rich plasma (PRP) was isolated by centrifugation at 200 g for 10 minutes at room temperature. PRP was pooled and 10 µg PGI2 was added before centrifugation at 1000 g for 10 minutes at room temperature. Platelets were resuspended in 1 ml Tyrodes buffer (134 mM NaCl, 0.34 mM Na2HPO4, 2.9 mM KCl, 12 mM NaHCO3, 20 mM HEPES, 5 mM glucose, 1 mM MgCl2, pH 7.3) pre-warmed to 30°C and 150 µl ACD. The volume was adjusted to 25 ml with Tyrodes buffer, followed by 3 ml ACD and 1.25 µg PGI2. Cells were centrifuged at 1000 g for 10 minutes at room temperature and the resultant cell pellet was resuspended in 1 ml pre-warmed Tyrodes buffer before adjusting the volume to a final cell density of 4×10^8 cells/ml (aggregations) or 2×10^9 cells/ml (peptide pull downs). Where appropriate, 1 mM EGTA, 10 µM indomethacin and 2 U/ml apyrase were added to inhibit aggregations (referred to as non-aggregating conditions).
(§2) Fluorescein-labelled, TAT-G6B-b peptides were synthesised by Peptide Protein Research Ltd (Hampshire, U.K.). Peptides were either unphosphorylated, or phosphorylated at both ITIMs as follows: Dual phosphorylated peptide – FLUO- […]*[…]*AVVV or unphosphorylated control peptide (lacking tyrosine phosphorylation) - FLUO- […]. TAT sequences are underlined and phosphorylated tyrosines marked with an asterisk. Peptides were loaded into washed platelets by incubation with 10 µM peptide for 15 minutes at 30°C, after which they were assessed by light transmission aggregometry. Peptide loading conditions were optimised and verified by flow cytometry.
(§3) Washed human platelets were loaded with TAT-G6B-b peptides (either dual phosphorylated or unphosphorylated) and changes in CRP efficacy determined by light transmission aggregometry. […] Thrombin-mediated activation was unaffected (data not shown). […] Peptide loading was verified by flow cytometry (Figure 9C and 9D.

Test [3] relates to washed human platelets (CRP). Put plainly: Light transmission aggregometry of TAT-peptide-loaded platelets, CRP. It counts as cell-based. The conditions noted are these: for effect on EC50 / sensitivity to CRP: washed human platelets, TAT peptide loading. The procedure:
as §1, §2, §3

Test [4] relates to SHP-2. Briefly: Peptide pull down from platelet lysate, SHP-2. The test is classed as binding. The conditions noted are these: human platelet lysate, Western blotting; 4°C, 30 min; n = 3. The procedure:
(§4) Forty micrograms of peptide were coupled to 50 µl of Streptactin beads (50% slurry) for 30 minutes at 4°C with end-over-end mixing, washed twice with 1 ml PBS and resuspended in 100 µl of modified Tyrodes buffer. Platelets were resuspended in modified Tyrodes buffer at a concentration of 2×10^9 cells/ml under non-aggregating conditions (10 µM indomethacin, 1 mM EGTA and 2 U/ml apyrase). Cells were activated with 1 ug/ml CRP for 90 seconds under stirring, but non-aggregating conditions, before reactions were terminated by the addition of 500 µl 2× NP40 lysis buffer (150 mM NaCl, 10 mM Tris pH 7.5, 1 mM EGTA, 1 mM EDTA, 1% NP-40) with inhibitors (Roche Complete mini protease inhibitor cocktail, 5 mM NaF, 5 mM NaVO4, 250 nM beta-glycerophosphate) and placed on ice. Lysates were pooled and pre-cleared as a batch with 200 µl streptactin beads (50% slurry). Non-specific interactions were then removed by centrifugation at 4,750 g for 15 minutes at 4°C. Pre-cleared lysates were incubated with 50 µl peptide/bead conjugate (50% slurry) at 4°C for 30 minutes with end-over-end mixing. […]
(§5) Although likely that these interactions are direct, this has not yet been conclusively shown. […] Peptide associated material was separated by SDS-PAGE and assessed for the presence of SHP-1 and SHP-2 by Western blotting, both of which were clearly identified (Figure 1C).
For orientation: In western blotting, separated proteins are transferred to a membrane and probed.

Test [5] deals with SHP-1. Put plainly: Peptide pull down from platelet lysate, SHP-1. It counts as binding. The conditions noted are these: human platelet lysate, Western blotting; 4°C, 30 min; n = 3. The procedure:
as §4, §5

For test [6], the target named is T1, N-terminal SH2 domain of SHP-2 (Homo sapiens, UniProt Q06124).
T1 construct: SHP-2 (N)SH2 (His-tag) (OMC #3912); His-tag; host or cells: E. coli BL21(DE3)
T1 sequence (Q06124 6-102 limits assumed): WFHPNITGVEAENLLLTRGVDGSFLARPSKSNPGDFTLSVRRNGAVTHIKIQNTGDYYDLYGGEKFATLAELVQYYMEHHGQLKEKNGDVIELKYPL
Put plainly: SPR (BIAcore 3000), single N-terminal SH2 domain of SHP-2. The test is classed as binding. The conditions noted are these: equilibrium binding, single site fitting, HBS pH 7.4, 37°C, 10 µl/min, read-out: KD. The procedure:
(§6) These proteins were expressed in BL21(DE3) cells (Invitrogen) induced with 1 mM IPTG for 4 hours at 37°C. Bacteria were pelleted and washed in PBS/0.5 M NaCl prior to sonication in PBS/0.5 M NaCl, in the presence of protease inhibitor cocktail (Complete, EDTA-free, Roche). Soluble and insoluble fractions were separated by centrifugation at 30,000 g for 60 minutes. Soluble fractions containing tagged proteins were incubated for 1 hour at 4°C with end-over-end mixing in the presence of washed Ni-Sepharose (GE Lifesceinces, Little Chalfont, U.K.) supplemented with 40 mM imidazole or Amylose resin (NEB, Herts, U.K). Proteins were eluted according to the manufacturer's instructions and purified by size exclusion chromatography on an AKTApurifier (GE Lifesciences, Little Chalfont, U.K).
Experiments were conducted on a BIAcore™ 3000 in HBS buffer (0.01 M HEPES, pH 7.4, containing 0.15 M NaCl, 3 mM EDTA, and 0.005% v/v P-20, GE Life Sciences, Amersham, UK). Streptavidin was coupled to a research grade CM5 chip (GE Life Sciences, Amersham, UK) as previously described, [13]. Protein-peptide interactions were carried out a rate of 10 µl/min at a constant temperature of 37°C to more accurately reflect physiological conditions. Biotinylated peptides were bound to the streptavidin-coated CM5 chips at 37°C to between 25–50 RU [14]. Purified monomeric SH2 domains were passed over the immobilised peptides at a range of concentrations. Anti-phosphotyrosine monoclonal antibody (Sigma, Poole, U.K.) was passed over the chip to saturation at the end of each experiment to verify peptide coverage on the chip. Binding affinities for the single ITIM/ITSM peptides were determined by plotting equilibrium binding measurements (RU) against SH2 domain protein concentration (Origin 8, OriginLab, MA, USA). KD was defined as the concentration of SH2 protein that gave half maximal binding to the peptide. […] KD was determined as Koff/Kon, which were determined using both GraphPad Prism 5.0 (GraphPad, La Jolla, CA, USA) and BIAevaluation Software (GE Life Sciences, Amersham,UK).

Test [7] concerns the target T2, SHP-1 tandem (N+C) SH2 domains (Homo sapiens, UniProt P29350).
T2 construct: host or cells: E. coli BL21(DE3)
T2 sequence (P29350 1-213 limits assumed): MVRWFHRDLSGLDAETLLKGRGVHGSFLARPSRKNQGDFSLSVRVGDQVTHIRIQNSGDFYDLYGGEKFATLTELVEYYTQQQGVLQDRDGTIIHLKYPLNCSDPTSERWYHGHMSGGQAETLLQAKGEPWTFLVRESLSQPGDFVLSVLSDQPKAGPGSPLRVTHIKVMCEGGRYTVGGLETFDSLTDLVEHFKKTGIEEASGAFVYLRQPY
T2 sequence (O95866 182-241 partner limits assumed): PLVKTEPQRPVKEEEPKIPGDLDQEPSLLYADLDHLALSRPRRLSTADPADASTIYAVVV
Briefly: SPR (BIAcore 3000), SHP-1 tandem (N+C) SH2 domains. It counts as binding. The procedure:
as §6
Experiments were conducted on a BIAcore™ 3000 in HBS buffer (0.01 M HEPES, pH 7.4, containing 0.15 M NaCl, 3 mM EDTA, and 0.005% v/v P-20, GE Life Sciences, Amersham, UK). […] Binding affinities for the single ITIM/ITSM peptides were determined by plotting equilibrium binding measurements (RU) against SH2 domain protein concentration (Origin 8, OriginLab, MA, USA). […] KD was determined as Koff/Kon, which were determined using both GraphPad Prism 5.0 (GraphPad, La Jolla, CA, USA) and BIAevaluation Software (GE Life Sciences, Amersham,UK). […]
In general terms: In SPR one partner is held on a chip, and binding of the other changes the refractive index at the surface.

Test [8] addresses T3, Syk (Homo sapiens, UniProt P43405).
T3 construct: made in house
Briefly: SPR (BIAcore 3000), Syk SH2 domains. The test is classed as binding. The conditions noted are these: HBS pH 7.4, 37°C, n = 3. The procedure:
Experiments were conducted on a BIAcore™ 3000 in HBS buffer (0.01 M HEPES, pH 7.4, containing 0.15 M NaCl, 3 mM EDTA, and 0.005% v/v P-20, GE Life Sciences, Amersham, UK). Streptavidin was coupled to a research grade CM5 chip (GE Life Sciences, Amersham, UK) as previously described, [13]. Protein-peptide interactions were carried out a rate of 10 µl/min at a constant temperature of 37°C to more accurately reflect physiological conditions. Biotinylated peptides were bound to the streptavidin-coated CM5 chips at 37°C to between 25–50 RU [14]. Purified monomeric SH2 domains were passed over the immobilised peptides at a range of concentrations. Anti-phosphotyrosine monoclonal antibody (Sigma, Poole, U.K.) was passed over the chip to saturation at the end of each experiment to verify peptide coverage on the chip. Binding affinities for the single ITIM/ITSM peptides were determined by plotting equilibrium binding measurements (RU) against SH2 domain protein concentration (Origin 8, OriginLab, MA, USA). KD was defined as the concentration of SH2 protein that gave half maximal binding to the peptide. For the 60-mer peptides, SH2 domains were passed over the chip surface at 50 µl/min. KD was determined as Koff/Kon, which were determined using both GraphPad Prism 5.0 (GraphPad, La Jolla, CA, USA) and BIAevaluation Software (GE Life Sciences, Amersham,UK). […]

Test [9] deals with T4, SHP-2 tandem (N+C) SH2 domains (Homo sapiens, UniProt Q06124).
T4 construct: SHP-2 (N+C)SH2 domains (His-tag) (3911); His-tag; host or cells: E. coli BL21(DE3)
T4 sequence (Q06124 1-216 limits assumed): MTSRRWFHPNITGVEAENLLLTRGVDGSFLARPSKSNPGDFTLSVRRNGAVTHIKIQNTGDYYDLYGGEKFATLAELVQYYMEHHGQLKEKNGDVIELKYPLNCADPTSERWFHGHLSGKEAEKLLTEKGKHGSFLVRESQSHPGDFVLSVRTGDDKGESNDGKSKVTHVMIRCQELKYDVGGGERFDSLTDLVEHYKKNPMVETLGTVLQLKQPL
T4 sequence (O95866 182-241 partner limits assumed): T2 sequence (O95866 182-241 partner limits assumed)
Briefly: SPR (BIAcore 3000), SHP-2 tandem (N+C) SH2 domains. The test is classed as binding. The conditions noted are these: kinetic (koff/kon), single site model, HBS pH 7.4, 37°C, 50 µl/min, mean, n = 5, SEM.
Method: Experiments were conducted on a BIAcore™ 3000 in HBS buffer (0.01 M HEPES, pH 7.4, containing 0.15 M NaCl, 3 mM EDTA, and 0.005% v/v P-20, GE Life Sciences, Amersham, UK). Streptavidin was coupled to a research grade CM5 chip (GE Life Sciences, Amersham, UK) as previously described [12], [13]. Protein-peptide interactions were carried out a rate of 10 µl/min at a constant temperature of 37°C to more accurately reflect physiological conditions. Biotinylated peptides were bound to the streptavidin-coated CM5 chips at 37°C to between 25–50 RU [14]. Purified monomeric SH2 domains were passed over the immobilised peptides at a range of concentrations. Anti-phosphotyrosine monoclonal antibody (Sigma, Poole, U.K.) was passed over the chip to saturation at the end of each experiment to verify peptide coverage on the chip. Binding affinities for the single ITIM/ITSM peptides were determined by plotting equilibrium binding measurements (RU) against SH2 domain protein concentration (Origin 8, OriginLab, MA, USA). […] For the 60-mer peptides, SH2 domains were passed over the chip surface at 50 µl/min. KD was determined as Koff/Kon, which were determined using both GraphPad Prism 5.0 (GraphPad, La Jolla, CA, USA) and BIAevaluation Software (GE Life Sciences, Amersham,UK).
We kinetically determined the binding affinity (KD = koff/kon) by SPR at physiological temperatures.

The mark [10] stands for this setting: 10 µM peptide, 15 min, 30°C, vs vehicle control.
Where [11] appears, read: listed as G6B-b dual phosphorylated peptide.

Take “FLUO- GRKKRRQRRRPQDLDQEPSLLY*ADLDHLALSRPRRLSTADPADASTIY*AVVV [dual phosphorylated G6B-b TAT-peptide, Fluorescein-labelled TAT-G6B-b peptide phosphorylated at both ITIMs]”: in test [1], the “thrombin-mediated activation” value was “unaffected”. Also, the “fold increase in EC50 of collagen” value in test [2] (setting [10]) turned out to be 2.5 fold. Also, the “effect on EC50 / sensitivity to collagen” value in [2] was “can reduce the EC50 for both CRP and collagen”; in [2] (setting [11]) it was “reduces platelet sensitivity to GPVI agonists”. Further, in [3] (setting [10]), the “fold increase in EC50 of CRP” value is about 1.65 fold. Also, the “effect on EC50 / sensitivity to CRP” value in test [3] was “can reduce the EC50 for both CRP and collagen”; in test [3] (setting [11]), “reduces platelet sensitivity to GPVI agonists”.

On to “unphosphorylated control peptides: biotinylated 60-mer G6B-b peptide (182 to 241), unphosphorylated (PLVKTEPQRPVKEEEPKIPGDLDQEPSLLYADLDHLALSRPRRLSTADPADASTIYAVVV; also: biotinylated (end not given here))”, for which the “association” value in test [4] and in [5] was “No SHP-1 or SHP-2 bound” throughout.

With “PLVKTEPQRPVKEEEPKIPGDLDQEPSLL[pY]ADLDHLALSRPRRLSTADPADASTI[pY]AVVV [dual phosphopeptide]”, the Kd is 0.13 µM in [6]; 0.0353 ± 0.0043 µM in test [7] (kinetic (koff/kon), single site model, HBS pH 7.4, 37°C, 50 µl/min, mean, n = 5, SEM, read-out: binding affinity (KD)); about 25 µM in test [8]; 0.00048 ± 9e-05 µM in test [9]. In addition, the Koff in [7] (37°C, dual peptide, read-out: Koff (dissociation rate)) was determined as 0.01 s⁻¹.
